The NIST ThermoML archive (doi:10.1021/je100253m)
Numbers after ± are expanded uncertainties.

Settings: Ring tensiometer

| Structure (SMILES) | surface tension liquid-gas (293.15 K) | surface tension liquid-gas (303.15 K) | surface tension liquid-gas (313.15 K) | surface tension liquid-gas (323.15 K) | surface tension liquid-gas (333.15 K) | surface tension liquid-gas (343.15 K) |
| --- | --- | --- | --- | --- | --- | --- |
| CCCC[N+]1(C)CCCC1.O=S(=O)([N-]S(=O)(=O)C(F)(F)F)C(F)(F)F | 34.93 ± 0.51 mN/m | 34.35 ± 0.51 mN/m | 33.65 ± 0.5 mN/m | 33.17 ± 0.49 mN/m | 32.61 ± 0.48 mN/m | 31.96 ± 0.48 mN/m |
| CCn1cc[n+](CC)c1.O=S(=O)([N-]S(=O)(=O)C(F)(F)F)C(F)(F)F [1,3-diethylimidazolium bis[(trifluoromethyl)sulfonyl]imide] | 35.76 ± 0.52 mN/m | 35.37 ± 0.52 mN/m | 34.94 ± 0.51 mN/m | 34.56 ± 0.51 mN/m | 34.15 ± 0.5 mN/m | 33.7 ± 0.5 mN/m |
| CCCCn1cc[n+](C)c1C.O=S(=O)([N-]S(=O)(=O)C(F)(F)F)C(F)(F)F | 37.4 ± 0.55 mN/m | 35.54 ± 0.52 mN/m | 33.83 ± 0.5 mN/m | 32.2 ± 0.48 mN/m | 30.49 ± 0.46 mN/m | 28.74 ± 0.44 mN/m |
| CCC[N+]1(C)CCCC1.O=S(=O)([N-]S(=O)(=O)C(F)(F)F)C(F)(F)F | 32.54 ± 0.48 mN/m | 31.95 ± 0.48 mN/m | 31.5 ± 0.47 mN/m | 31 ± 0.46 mN/m | 30.47 ± 0.46 mN/m | 29.97 ± 0.45 mN/m |
| CCC[n+]1cccc(C)c1.O=S(=O)([N-]S(=O)(=O)C(F)(F)F)C(F)(F)F | 36 ± 0.53 mN/m | 35.53 ± 0.52 mN/m | 35.1 ± 0.52 mN/m | 34.53 ± 0.51 mN/m | 34.05 ± 0.5 mN/m | 33.55 ± 0.5 mN/m |
| CCCCCCCCCCCCCC[P+](CCCCCC)(CCCCCC)CCCCCC.O=S(=O)([N-]S(=O)(=O)C(F)(F)F)C(F)(F)F | 30.75 ± 0.46 mN/m | 30.25 ± 0.46 mN/m | 29.52 ± 0.45 mN/m | 28.87 ± 0.44 mN/m | 28.21 ± 0.43 mN/m | 27.59 ± 0.42 mN/m |
